In patent US11485732B2, “Compounds and uses thereof” (Foghorn Therapeutics Inc., priority 2020, dated 2022):

Assays:
[1] = tested on: PKC inhibitor (PKCi)-resistant MP41 uveal melanoma cells; experiment: 7-day growth inhibition assay, PKC inhibitor-resistant cells (Example 14)
[2] = Body weight change of tumor-bearing mice (Example 16); format: in vivo; conditions: all treatments, once daily oral gavage, 3 weeks
BRM = BRM (Homo sapiens, UniProt P51531); experiment: biochemical
[3] = tested on: 92-1 uveal melanoma cells; experiment: Uveal melanoma tumor growth inhibition in vivo (Example 18); parameters: species or system Nude mice; conditions: once daily oral gavage, increasing doses, 3 weeks
[4] = Body weight change of tumor-bearing mice (Example 18); format: in vivo; conditions: all treatments, once daily oral gavage, 3 weeks
[5] = tested on: Uveal melanoma cell lines (92-1, MEL202, MP41, MP38, MP46), prostate cancer cells (22RV1), acute leukemia cells (EOL1, THP1), and histocytic lymphoma cells …; experiment: 3-day growth inhibition, Cell-titer glow, all cell lines (Example 17); format: cell-based; conditions: 0 to 2 μM (uveal melanoma) or 0 to 1 μM (other cell lines), 3 days
[6] = tested on: uveal melanoma and hematologic cancer cell lines versus the other tested cell lines; experiment: Growth of uveal melanoma, hematological and other cancer cell lines, day 3 and day 7, Cell-titer glo (Example 7); format: cell-based
[7] = tested on: uveal melanoma, hematologic cancer, prostate cancer, breast cancer, and Ewing's sarcoma cell lines versus the other tested cell lines; conditions: 0 to 10 μM; day 3 and day 7
[8] = tested on: Uveal melanoma cell lines (92-1, MP41, MP38, MP46) and non-small cell lung cancer cells (NCIH1299); experiment: 3-day growth inhibition, Cell-titer glow (Example 12); format: cell-based; conditions: 0 to 10 μM, 3 days
parental MP41 cells = experiment: 7-day growth inhibition assay, parental cells (Example 14)

Chain of BRM (P51531 whole entry): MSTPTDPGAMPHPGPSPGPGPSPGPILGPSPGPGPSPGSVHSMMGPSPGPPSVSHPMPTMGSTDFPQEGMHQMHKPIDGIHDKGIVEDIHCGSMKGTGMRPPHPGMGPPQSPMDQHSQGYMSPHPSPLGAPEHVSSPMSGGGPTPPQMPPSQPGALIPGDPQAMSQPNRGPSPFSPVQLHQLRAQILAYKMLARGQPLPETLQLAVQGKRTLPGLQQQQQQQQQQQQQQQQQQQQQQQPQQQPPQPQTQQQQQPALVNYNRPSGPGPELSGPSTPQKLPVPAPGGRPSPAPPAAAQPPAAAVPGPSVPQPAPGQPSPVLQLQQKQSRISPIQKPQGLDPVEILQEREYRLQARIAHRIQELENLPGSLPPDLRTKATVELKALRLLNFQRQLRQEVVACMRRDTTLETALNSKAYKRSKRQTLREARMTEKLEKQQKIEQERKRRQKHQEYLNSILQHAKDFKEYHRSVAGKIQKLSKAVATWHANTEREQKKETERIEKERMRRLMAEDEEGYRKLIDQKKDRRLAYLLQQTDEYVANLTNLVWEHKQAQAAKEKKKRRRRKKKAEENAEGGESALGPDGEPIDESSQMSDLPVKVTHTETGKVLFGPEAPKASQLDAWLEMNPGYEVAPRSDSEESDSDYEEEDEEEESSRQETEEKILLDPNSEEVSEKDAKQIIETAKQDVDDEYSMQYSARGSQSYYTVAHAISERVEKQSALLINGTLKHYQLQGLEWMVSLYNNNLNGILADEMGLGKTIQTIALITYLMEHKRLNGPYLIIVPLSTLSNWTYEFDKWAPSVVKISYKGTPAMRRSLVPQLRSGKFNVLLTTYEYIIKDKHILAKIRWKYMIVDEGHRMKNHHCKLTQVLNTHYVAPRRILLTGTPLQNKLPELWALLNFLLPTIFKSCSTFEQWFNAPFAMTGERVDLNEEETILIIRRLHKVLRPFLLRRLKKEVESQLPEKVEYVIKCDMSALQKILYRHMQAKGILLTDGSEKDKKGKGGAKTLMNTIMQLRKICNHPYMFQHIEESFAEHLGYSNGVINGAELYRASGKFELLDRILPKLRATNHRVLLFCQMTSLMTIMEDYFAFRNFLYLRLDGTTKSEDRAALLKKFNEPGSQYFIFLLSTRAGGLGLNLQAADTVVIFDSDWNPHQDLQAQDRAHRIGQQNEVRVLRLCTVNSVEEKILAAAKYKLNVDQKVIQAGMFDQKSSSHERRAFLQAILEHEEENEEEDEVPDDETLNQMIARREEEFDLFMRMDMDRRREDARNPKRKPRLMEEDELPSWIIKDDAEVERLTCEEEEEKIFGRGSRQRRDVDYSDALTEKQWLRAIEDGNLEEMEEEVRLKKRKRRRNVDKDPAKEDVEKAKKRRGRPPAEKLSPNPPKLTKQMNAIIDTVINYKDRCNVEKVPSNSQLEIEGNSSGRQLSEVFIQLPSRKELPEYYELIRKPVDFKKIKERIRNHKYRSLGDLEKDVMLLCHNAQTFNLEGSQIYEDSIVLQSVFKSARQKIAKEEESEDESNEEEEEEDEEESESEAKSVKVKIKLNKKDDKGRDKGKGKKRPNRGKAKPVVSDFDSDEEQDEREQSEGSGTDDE

CC1(N)CCN(c2cccnc2NC(=O)c2nc(-c3ncccc3C(F)(F)F)cnc2N)CC1 [LXS196]
sensitivity of PKCi-resistant cells relative to parental MP41 cells (FIG. 9, FIG. 10) [1]: could tolerate growth at higher concentrations of LXS196 than could the parental MP41 cell line

C[C@@H]1CN(c2cccc(-c3csc(NC(=O)CNC(=O)c4ccn(C(C)(C)C)c4)n3)n2)C[C@H](C)O1 [Compound C]
tolerability, body weight change (FIG. 13) [2]: well tolerated with no body weight loss observed

COC[C@H](NC(=O)c1ccn(S(C)(=O)=O)c1)C(=O)Nc1nc(-c2cccc(N3C[C@@H](C)O[C@@H](C)C3)n2)cs1 [N—((S)-1-((4-(6-(cis-2,6-dimethylmorpholino)pyridin-2-yl)thiazol-2-yl)amino)-3-methoxy-1-oxopropan-2-yl)-1-(methylsulfonyl)-1H-pyrrole-3-carboxamide]
IC50 (BRM): 3.9 nM | tumor growth inhibition (FIG. 15) [3]: tumor growth inhibition in a dose-dependent manner | tolerability based on % body weight change (FIG. 16) [4]: well tolerated | growth inhibition (FIG. 14) [5]: potent growth inhibition in all the cell lines

[2H]C([2H])([2H])OC([2H])([2H])[C@@H](NC(=O)c1ccn(S(C)(=O)=O)c1)C(=O)Nc1nc(-c2cccc(N3C[C@@H](C)O[C@@H](C)C3)n2)cs1 [N—((R)-1-((4-(6-(cis-2,6-dimethylmorpholino)pyridin-2-yl)thiazol-2-yl)amino)-3-(methoxy-d3)-1-oxopropan-2-yl-3,3-d2)-1-(methylsulfonyl)-1H-pyrrole-3-carboxamide]
IC50 (BRM): 443 nM

CSCC[C@H](NC(=O)c1ccc(N)cc1)C(=O)Nc1nc(-c2cccc(-c3ccncc3)c2)cs1 [Compound A]
sensitivity of cell lines to growth inhibition (GI50, FIG. 1) ([6]; 0 to 10 μM, day 3 and day 7): more sensitive to BRG1/BRM inhibition than the other tested cell lines | duration of growth inhibition ([6]; uveal melanoma and hematologic cancer cell lines): maintained through day 7

CSCC[C@H](NC(=O)c1ccn(S(C)(=O)=O)c1)C(=O)Nc1nc(-c2cccc(-c3ccncc3)c2)cs1 [Compound B]
sensitivity of cell lines to growth inhibition (FIG. 4) [7]: more sensitive to BRG1/BRM inhibition than the other tested cell lines | growth inhibition (FIG. 6) [8]: potent growth inhibition in the cell lines | growth inhibition, parental MP41 cell line (FIG. 10) (parental MP41 cells): strong growth inhibition

[2H]C([2H])([2H])OC([2H])([2H])[C@H](NC(=O)c1ccn(S(C)(=O)=O)c1)C(=O)Nc1nc(-c2cccc(N3C[C@@H](C)O[C@@H](C)C3)n2)cs1 [N—((S)-1-((4-(6-(cis-2,6-dimethylmorpholino)pyridin-2-yl)thiazol-2-yl)amino)-3-(methoxy-d3)-1-oxopropan-2-yl-3,3-d2)-1-(methylsulfonyl)-1H-pyrrole-3-carboxamide]
IC50 (BRM): 4.6 nM
